Measured values from paper PMC11289455 (Scientific Reports, 2024).
Like-named read-outs stand apart in the source and are kept apart here.

Assays:
Assay type in all cases: binding
[1] = molecular target: T1, α2A (alpha-2A adrenergic receptor) (Homo sapiens, UniProt P08913); test: SafetyScreen44: α2A
T1 construct: purchased Eurofins Cerep SafetyScreen44
T1 sequence (P08913 1-465): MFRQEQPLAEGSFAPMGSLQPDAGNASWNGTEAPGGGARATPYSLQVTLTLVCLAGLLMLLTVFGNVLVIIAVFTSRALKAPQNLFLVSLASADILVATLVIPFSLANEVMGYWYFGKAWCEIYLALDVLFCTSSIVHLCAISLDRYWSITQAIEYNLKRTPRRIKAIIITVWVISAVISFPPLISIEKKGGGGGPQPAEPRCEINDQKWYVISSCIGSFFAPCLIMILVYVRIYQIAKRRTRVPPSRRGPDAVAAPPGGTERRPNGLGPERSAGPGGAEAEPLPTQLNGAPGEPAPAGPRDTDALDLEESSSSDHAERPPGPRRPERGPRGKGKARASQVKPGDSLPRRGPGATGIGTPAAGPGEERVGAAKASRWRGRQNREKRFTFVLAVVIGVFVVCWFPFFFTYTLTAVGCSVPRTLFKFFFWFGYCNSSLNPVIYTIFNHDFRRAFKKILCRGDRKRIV

[2] = molecular target: T2, CB1 (cannabinoid receptor type 1) (Homo sapiens, UniProt P21554); test: SafetyScreen44: CB1
T2 construct: purchased Eurofins Cerep SafetyScreen44

[3] = molecular target: T3, CCK1 (CCKA) (cholecystokinin 1 receptor) (Homo sapiens, UniProt P32238); test: SafetyScreen44: CCK1 (CCKA)
T3 construct: purchased Eurofins Cerep SafetyScreen44
T3 sequence (P32238 1-428): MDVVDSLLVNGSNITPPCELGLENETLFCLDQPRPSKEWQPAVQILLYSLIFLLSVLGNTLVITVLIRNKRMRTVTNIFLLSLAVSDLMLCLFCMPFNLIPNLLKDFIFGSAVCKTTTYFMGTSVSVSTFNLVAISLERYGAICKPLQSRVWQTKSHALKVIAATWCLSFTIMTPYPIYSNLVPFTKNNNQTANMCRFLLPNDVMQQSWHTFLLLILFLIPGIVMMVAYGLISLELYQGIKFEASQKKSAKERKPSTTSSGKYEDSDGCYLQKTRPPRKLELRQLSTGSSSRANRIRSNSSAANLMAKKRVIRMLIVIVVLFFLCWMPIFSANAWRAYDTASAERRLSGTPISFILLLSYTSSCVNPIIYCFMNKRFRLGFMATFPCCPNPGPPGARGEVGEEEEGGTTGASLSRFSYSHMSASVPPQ

[4] = molecular target: T4, H1 (histamine H1 receptor) (Homo sapiens, UniProt P35367); test: SafetyScreen44: H1
T4 construct: purchased Eurofins Cerep SafetyScreen44

[5] = molecular target: T5, M1 (muscarinic acetylcholine receptor M1) (Homo sapiens, UniProt P11229); test: SafetyScreen44: M1
T5 construct: purchased Eurofins Cerep SafetyScreen44
T5 sequence (P11229 1-460): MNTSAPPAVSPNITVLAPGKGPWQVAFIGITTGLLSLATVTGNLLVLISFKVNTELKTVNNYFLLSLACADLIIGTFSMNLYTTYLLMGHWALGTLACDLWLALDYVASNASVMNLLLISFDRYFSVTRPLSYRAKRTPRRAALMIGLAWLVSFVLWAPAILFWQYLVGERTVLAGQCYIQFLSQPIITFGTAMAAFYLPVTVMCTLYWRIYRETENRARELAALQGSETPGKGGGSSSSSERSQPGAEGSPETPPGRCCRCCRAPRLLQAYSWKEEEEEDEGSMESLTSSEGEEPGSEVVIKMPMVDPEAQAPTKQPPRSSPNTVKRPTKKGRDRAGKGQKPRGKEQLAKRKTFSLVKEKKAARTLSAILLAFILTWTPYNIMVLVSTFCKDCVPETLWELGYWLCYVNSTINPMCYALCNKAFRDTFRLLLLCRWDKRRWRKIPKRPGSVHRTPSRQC

[6] = molecular target: T6, δ (DOP) (delta opioid receptor) (Homo sapiens, UniProt P41143); test: SafetyScreen44: δ (DOP)
T6 construct: purchased Eurofins Cerep SafetyScreen44

[7] = molecular target: T7, 5-HT1B (serotonin 1B receptor) (Rattus norvegicus, UniProt P28564); test: SafetyScreen44: 5-HT1B
T7 construct: purchased Eurofins Cerep SafetyScreen44

[8] = molecular target: T8, 5-HT3 (serotonin 3 receptor) (Homo sapiens, UniProt P46098); test: SafetyScreen44: 5-HT3
T8 construct: purchased Eurofins Cerep SafetyScreen44
T8 sequence (P46098 24-478): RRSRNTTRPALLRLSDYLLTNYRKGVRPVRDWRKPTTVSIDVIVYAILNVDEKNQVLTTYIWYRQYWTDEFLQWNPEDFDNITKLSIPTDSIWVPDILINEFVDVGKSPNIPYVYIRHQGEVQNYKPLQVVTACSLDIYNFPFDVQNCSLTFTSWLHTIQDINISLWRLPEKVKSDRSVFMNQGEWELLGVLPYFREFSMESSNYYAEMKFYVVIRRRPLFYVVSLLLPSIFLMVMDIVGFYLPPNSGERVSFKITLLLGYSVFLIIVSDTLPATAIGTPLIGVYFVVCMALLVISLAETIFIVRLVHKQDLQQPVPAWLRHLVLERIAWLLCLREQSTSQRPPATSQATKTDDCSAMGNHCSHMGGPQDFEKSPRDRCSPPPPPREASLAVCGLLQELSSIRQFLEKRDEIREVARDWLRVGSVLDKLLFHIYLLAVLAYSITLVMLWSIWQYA

[9] = molecular target: T9, 5-HT transporter (Homo sapiens, UniProt P31645); test: SafetyScreen44: 5-HT transporter
T9 construct: purchased Eurofins Cerep SafetyScreen44
T9 sequence (P31645 whole entry): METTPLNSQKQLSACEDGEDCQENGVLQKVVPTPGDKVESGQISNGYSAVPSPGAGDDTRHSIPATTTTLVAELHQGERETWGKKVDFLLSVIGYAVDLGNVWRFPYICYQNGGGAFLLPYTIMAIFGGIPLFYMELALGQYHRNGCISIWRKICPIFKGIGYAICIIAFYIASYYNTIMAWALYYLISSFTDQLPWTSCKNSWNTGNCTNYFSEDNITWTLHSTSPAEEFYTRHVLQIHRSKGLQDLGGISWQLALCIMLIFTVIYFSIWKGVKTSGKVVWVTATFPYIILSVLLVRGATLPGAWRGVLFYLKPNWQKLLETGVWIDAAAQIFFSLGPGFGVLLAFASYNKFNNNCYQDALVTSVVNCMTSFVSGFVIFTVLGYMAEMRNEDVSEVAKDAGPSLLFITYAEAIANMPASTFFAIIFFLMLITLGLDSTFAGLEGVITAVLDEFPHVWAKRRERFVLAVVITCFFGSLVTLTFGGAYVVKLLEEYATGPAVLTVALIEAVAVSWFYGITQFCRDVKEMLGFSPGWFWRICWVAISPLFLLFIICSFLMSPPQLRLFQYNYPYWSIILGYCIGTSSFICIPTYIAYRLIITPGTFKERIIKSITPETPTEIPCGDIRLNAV

T7 sequence (P28564 whole entry): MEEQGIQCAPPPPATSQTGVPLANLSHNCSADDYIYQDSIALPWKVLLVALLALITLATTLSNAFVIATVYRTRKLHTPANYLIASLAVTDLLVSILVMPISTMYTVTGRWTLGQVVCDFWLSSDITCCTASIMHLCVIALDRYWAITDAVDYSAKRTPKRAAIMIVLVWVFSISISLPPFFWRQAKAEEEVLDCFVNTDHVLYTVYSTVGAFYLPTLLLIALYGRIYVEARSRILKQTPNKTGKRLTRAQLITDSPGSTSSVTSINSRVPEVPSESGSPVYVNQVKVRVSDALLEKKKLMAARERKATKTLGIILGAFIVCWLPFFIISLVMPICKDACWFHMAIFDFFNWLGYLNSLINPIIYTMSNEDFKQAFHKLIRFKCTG
T2 sequence (P21554 whole entry): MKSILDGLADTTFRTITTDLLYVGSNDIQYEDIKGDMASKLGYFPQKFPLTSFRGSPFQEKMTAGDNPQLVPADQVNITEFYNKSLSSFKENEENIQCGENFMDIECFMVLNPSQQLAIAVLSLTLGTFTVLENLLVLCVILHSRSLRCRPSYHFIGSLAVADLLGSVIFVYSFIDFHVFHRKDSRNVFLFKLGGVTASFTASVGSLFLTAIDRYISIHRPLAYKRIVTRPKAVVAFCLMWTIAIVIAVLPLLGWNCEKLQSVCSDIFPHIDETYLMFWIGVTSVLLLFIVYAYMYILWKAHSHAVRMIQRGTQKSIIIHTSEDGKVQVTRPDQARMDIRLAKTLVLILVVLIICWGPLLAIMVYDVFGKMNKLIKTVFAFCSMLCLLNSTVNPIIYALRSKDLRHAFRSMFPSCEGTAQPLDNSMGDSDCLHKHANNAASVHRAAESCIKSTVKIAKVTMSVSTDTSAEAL
T6 sequence (P41143 whole entry): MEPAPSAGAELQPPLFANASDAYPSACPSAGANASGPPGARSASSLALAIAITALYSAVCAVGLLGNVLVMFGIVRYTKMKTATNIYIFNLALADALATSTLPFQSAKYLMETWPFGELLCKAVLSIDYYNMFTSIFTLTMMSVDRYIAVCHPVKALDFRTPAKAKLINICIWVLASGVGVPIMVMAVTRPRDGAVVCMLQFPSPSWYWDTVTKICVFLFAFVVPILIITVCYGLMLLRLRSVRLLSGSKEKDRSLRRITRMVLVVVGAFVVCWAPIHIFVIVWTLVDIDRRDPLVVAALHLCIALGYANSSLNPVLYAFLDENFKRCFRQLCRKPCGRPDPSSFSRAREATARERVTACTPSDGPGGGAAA
T4 sequence (P35367 whole entry): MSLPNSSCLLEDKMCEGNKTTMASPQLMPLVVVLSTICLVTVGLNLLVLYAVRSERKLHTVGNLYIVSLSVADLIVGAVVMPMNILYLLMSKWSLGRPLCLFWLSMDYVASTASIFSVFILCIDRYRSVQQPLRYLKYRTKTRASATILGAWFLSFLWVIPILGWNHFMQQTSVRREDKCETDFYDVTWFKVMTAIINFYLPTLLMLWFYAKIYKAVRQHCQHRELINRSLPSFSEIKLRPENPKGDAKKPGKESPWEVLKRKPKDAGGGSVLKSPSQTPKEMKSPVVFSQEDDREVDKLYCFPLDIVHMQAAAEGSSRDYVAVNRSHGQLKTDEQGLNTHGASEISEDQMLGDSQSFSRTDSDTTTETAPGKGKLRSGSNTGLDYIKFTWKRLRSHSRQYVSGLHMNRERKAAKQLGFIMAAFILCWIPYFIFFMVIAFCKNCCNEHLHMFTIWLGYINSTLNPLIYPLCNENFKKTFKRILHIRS

Question: What does the source list for `CC(=O)NCCCC[C@@H]1NC(=O)[C@H](Cc2c[nH]c3c(C)cccc23)NC(=O)[C@H]([C@@H](C)O)NC(=O)[C@H](CC(N)=O)NC(=O)[C@@H](NC(C)=O)C(C)(C)SSC(C)(C)[C@@H](C(=O)N[C@@H](Cc2ccc(OCCN)cc2)C(=O)N[C@@H](Cc2ccc3ccccc3c2)C(=O)NC2(C(=O)N[C@@H](CCC(=O)O)C(=O)N[C@@H](CC(N)=O)C(=O)N[C@@H](Cc3cccnc3)C(=O)N(C)CC(N)=O)CCOCC2)NC1=O` [JNJ-77242113, S^3,1,S^3,6-cyclo[N-acetyl-3-sulfanyl-L-valyl-L-asparaginyl-L-threonyl-7-methyl-L-tryptophyl-N^6-acetyl-L-lysyl-3-sulfanyl-L-valyl-O-(2-aminoethyl)-L-tyrosyl-3-(naphthalen-2-yl)-L-alanyl-4-aminooxan-4-carbonyl-L-α-glutamyl-L-asparaginyl-3-(pyridin-3-yl)-L-alanyl-N^2-methylglycinamide]]?
Answer: inhibition at 10 µM ([1]; 1st run, read-out: Percent inhibition of control ligand binding, α2A, 1st run): 0.4%; inhibition at 10 µM ([1]; 2nd run, read-out: Percent inhibition of control ligand binding, α2A, 2nd run): -2.6%; inhibition at 10 µM ([1]; mean of 2 runs, read-out: Percent inhibition of control ligand binding, α2A, Mean): -1.1%; inhibition at 10 µM ([2]; 1st run, read-out: Percent inhibition of control ligand binding, CB1, 1st run): 2.5%; inhibition at 10 µM ([2]; 2nd run, read-out: Percent inhibition of control ligand binding, CB1, 2nd run): -6.9%; inhibition at 10 µM ([2]; mean of 2 runs, read-out: Percent inhibition of control ligand binding, CB1, Mean): -2.2%; inhibition at 10 µM ([3]; 1st run, read-out: Percent inhibition of control ligand binding, CCK1 (CCKA), 1st run): -29.4%; inhibition at 10 µM ([3]; 2nd run, read-out: Percent inhibition of control ligand binding, CCK1 (CCKA), 2nd run): -12.3%; inhibition at 10 µM ([3]; mean of 2 runs, read-out: Percent inhibition of control ligand binding, CCK1 (CCKA), Mean): -20.8%; inhibition at 10 µM ([4]; 1st run, read-out: Percent inhibition of control ligand binding, H1, 1st run): -8.4%; inhibition at 10 µM ([4]; 2nd run, read-out: Percent inhibition of control ligand binding, H1, 2nd run): -9.8%; inhibition at 10 µM ([4]; mean of 2 runs, read-out: Percent inhibition of control ligand binding, H1, Mean): -9.1%; inhibition at 10 µM ([5]; 1st run, read-out: Percent inhibition of control ligand binding, M1, 1st run): -4.1%; inhibition at 10 µM ([5]; 2nd run, read-out: Percent inhibition of control ligand binding, M1, 2nd run): 3.3%; inhibition at 10 µM ([5]; mean of 2 runs, read-out: Percent inhibition of control ligand binding, M1, Mean): -0.4%; inhibition at 10 µM ([6]; 1st run, read-out: Percent inhibition of control ligand binding, δ (DOP), 1st run): -7.8%; inhibition at 10 µM ([6]; 2nd run, read-out: Percent inhibition of control ligand binding, δ (DOP), 2nd run): 0.4%; inhibition at 10 µM ([6]; mean of 2 runs, read-out: Percent inhibition of control ligand binding, δ (DOP), Mean): -3.7%; inhibition at 10 µM ([7]; 1st run, read-out: Percent inhibition of control ligand binding, 5-HT1B, 1st run): 0%; inhibition at 10 µM ([7]; 2nd run, read-out: Percent inhibition of control ligand binding, 5-HT1B, 2nd run): -9.8%; inhibition at 10 µM ([7]; mean of 2 runs, read-out: Percent inhibition of control ligand binding, 5-HT1B, Mean): -4.9%; inhibition at 10 µM ([8]; 1st run, read-out: Percent inhibition of control ligand binding, 5-HT3, 1st run): 0.7%; inhibition at 10 µM ([8]; 2nd run, read-out: Percent inhibition of control ligand binding, 5-HT3, 2nd run): 3.4%; inhibition at 10 µM ([8]; mean of 2 runs, read-out: Percent inhibition of control ligand binding, 5-HT3, Mean): 2.1%; inhibition at 10 µM ([9]; 1st run, read-out: Percent inhibition of control ligand binding, 5-HT transporter, 1st run): -19.9%; inhibition at 10 µM ([9]; 2nd run, read-out: Percent inhibition of control ligand binding, 5-HT transporter, 2nd run): 1.4%; inhibition at 10 µM ([9]; mean of 2 runs, read-out: Percent inhibition of control ligand binding, 5-HT transporter, Mean): -9.2%
